Measurements reported in ChEMBL document CHEMBL5331043, “A comprehensive review on acridone based derivatives as future anti-cancer agents and their structure activity relationships” (Eur J Med Chem, 2022).
≈ marks a conversion by molar mass, not a printed value. Where “and” joins values, the source holds several entries; their conditions need not be identical. Identical values can stand only once.

Experiments:
MCF7 [1] = assay: Cytotoxicity against human wild type MCF7 cells; assay type: functional, cell-based
[2] = Cytotoxicity against human MCF7/Mitox cells; assay type: functional, cell-based
MCF7-DOX [3] = assay: Cytotoxicity against human MCF7-DOX cells; assay type: functional, cell-based
MCF7 [4] = assay: Antiproliferative activity against human MCF7 cells assessed as reduction in cell viability incubated for 48 hrs by MTT assay; assay type: functional, cell-based; details: MCF7, 48 h
[5] = Cytotoxicity against human MDA-MB-231/BCRP cells assessed as reduction in cell growth by resazurin reduction assay; assay type: functional, cell-based
CCRF-CEM = assay: Cytotoxicity against human CCRF-CEM cells assessed as cell growth inhibition; assay type: functional, cell-based
P388 = assay: Cytotoxicity against mouse P388 cells; assay type: functional, cell-based
HepG2 [6] = assay: Cytotoxicity against human HepG2 cells assessed as reduction in cell viability incubated for 24 hrs by SRB assay; assay type: functional, cell-based; details: HepG2, 24 h
[7] = Cytotoxicity against human KKU-213C assessed as reduction in cell viability incubated for 24 hrs by SRB assay; assay type: functional, cell-based
MCF7 [8] = assay: Antitumor activity against human MCF7 cells xenografted in BALB/c nude mouse assessed as inhibition of tumor growth at 1 mg/kg, ip administered once daily for 21 days; assay type: functional; details: MCF7, 504 h, time 21 day, read-out: TGI
MCF7 [9] = assay: Cytotoxicity against human MCF7 cells assessed as reduction in cell growth incubated for 72 hrs by SRB assay; assay type: functional, cell-based; details: MCF7, 72 h
[10] = Cytotoxicity against human SW1398 cells assessed as cell growth inhibition incubated for 72 hrs by SRB assay; assay type: functional, cell-based; details: SW1398, 72 h
WiDr = assay: Cytotoxicity against human WiDr cells assessed as cell growth inhibition incubated for 72 hrs by SRB assay; assay type: functional, cell-based
MCF7 [11] = assay: Cytotoxicity against human MCF7 cells assessed as cell growth inhibition incubated for 72 hrs by SRB assay; assay type: functional, cell-based; details: MCF7, 72 h
MCF7 [12] = assay: Cytotoxicity against human wild type MCF7 cells assessed as reduction in cell viability measured after 72 hrs by SRB assay; assay type: functional, cell-based; details: MCF7, 72 h
[13] = Cytotoxicity against human mitoxantrone resistant human MCF7/Mitox cells assessed as reduction in cell viability incubated for 72 hrs by SRB assay; assay type: functional, cell-based
MCF7-DOX [14] = assay: Cytotoxicity against human doxorubicin resistant MCF7-DOX cells assessed as reduction in cell viability incubated for 72 hrs by SRB assay; assay type: functional, cell-based
[15] = Cytotoxicity against human KB-ChR-8-5 cells assessed as reduction in cell growth incubated for 7 days in presence of vinblastine; assay type: functional, cell-based; details: KB-ChR-8-5, 168 h
[16] = molecular target: MAP/microtubule affinity-regulating kinase 4 (Homo sapiens, UniProt Q96L34); assay: Inhibition of human MARK4 ATPase activity using ATP as substrate incubated for 10 to 20 mins by Biomol green reagent based ELISA analysis
MCF7 [17] = assay: Cytotoxicity against human MCF7 cells assessed as reduction in cell viability measured after 72 hrs by MTT assay; assay type: functional, cell-based; details: MCF7, 72 h
A-431 = assay: Cytotoxicity against human A-431 cells assessed as reduction in cell viability measured after 72 hrs by MTT assay; assay type: functional, cell-based; details: A-431, 72 h
HeLa = assay: Cytotoxicity against human HeLa cells assessed as reduction in cell viability measured after 72 hrs by MTT assay; assay type: functional, cell-based
PC-3 [18] = assay: Antiproliferative activity against human PC-3 cells assessed as reduction in cell viability measured after 24 hrs by MTT assay; assay type: functional, cell-based; details: PC-3, 24 h
HL-60 [19] = assay: Anticancer activity against human HL-60 cells assessed as cell growth inhibition incubated for 72 hrs by MTT assay; assay type: functional, cell-based; details: HL-60, 72 h
MCF7 [20] = assay: Cytotoxicity against human MCF7 cells assessed as reduction in cell viability incubated for 72 hrs by MTT assay; assay type: functional, cell-based; details: MCF7, 72 h
MDA-MB-231 = assay: Cytotoxicity against human MDA-MB-231 cells assessed as reduction in cell viability incubated for 72 hrs by MTT assay; assay type: functional, cell-based; details: MDA-MB-231, 72 h
MCF7 [21] = assay: Cytotoxicity against human MCF7 cells assessed as reduction in cell viability by SRB assay; assay type: functional, cell-based
Raji = assay: Antitumor activity against human Raji cells xenografted in ICR mouse assessed as reduction in tumor growth measured after 20 weeks; assay type: functional; design: scale not given: the % may be the effect or the level left
HL60/ADR = assay: Cytotoxicity against drug resistant human HL60/ADR cells assessed as inhibition of cell growth incubated for 72 hrs by SRB assay; assay type: functional, cell-based
[22] = Cytotoxicity against drug resistant human HL60/VCR assessed as inhibition of cell growth incubated for 72 hrs by SRB assay; assay type: functional, cell-based
HL-60 [23] = assay: Cytotoxicity against human HL-60 cells assessed as cell growth inhibition incubated for 72 hrs by SRB assay; assay type: functional, cell-based; details: HL-60, 72 h
HL-60 [24] = assay: Cytotoxicity against human HL-60 cells assessed as cell growth inhibition incubated for 72 hrs by tryphan blue staining based analysis; assay type: functional; details: HL-60, 72 h
[25] = molecular target: Stimulator of interferon genes protein (Homo sapiens, UniProt Q86WV6); assay: Activation of STING pathway in human 293T-hSTING-R232 cells incubated for 48 hrs by QUANTI-Luc assay; assay type: cell-based, 293T-hSTING-R232 cell
MCF7 [26] = assay: Cytotoxicity against human MCF7 cells assessed as reduction in cell viability incubated for 48 hrs by alamar blue reagent based fluorescence assay; assay type: functional; details: MCF7, 48 h
HepG2 [27] = assay: Cytotoxicity against human HepG2 cells assessed as reduction in cell viability incubated for 48 hrs by alamar blue reagent based fluorescence assay; assay type: functional; details: HepG2, 48 h
MCF7 [28] = assay: Antiproliferative activity against human MCF7 cells assessed as reduction in cell viability incubated for 72 hrs by MTT assay; assay type: functional, cell-based; details: MCF7, 72 h
HepG2 [29] = assay: Antiproliferative activity against human HepG2 cells assessed as reduction in cell viability incubated for 72 hrs by MTT assay; assay type: functional, cell-based; details: HepG2, 72 h
PC-3 [30] = assay: Antiproliferative activity against human PC-3 cells assessed as reduction in cell viability incubated for 72 hrs by MTT assay; assay type: functional, cell-based; details: PC-3, 72 h
A549 = assay: Antiproliferative activity against human A549 cells assessed as reduction in cell viability incubated for 72 hrs by MTT assay; assay type: functional, cell-based; details: A549, 72 h
SW1573 = assay: Cytotoxicity against human SW1573 cells assessed as reduction in cell viability incubated for 72 hrs by SRB assay; assay type: functional, cell-based; details: SW1573, 72 h
NCI-H23 = assay: Cytotoxicity against human NCI-H23 cells; assay type: functional; details: read-out: LC50 (the source's name)
M14 = assay: Cytotoxicity against human M14 cells; assay type: functional; details: read-out: LC50 (the source's name)
UACC-62 = assay: Cytotoxicity against human UACC-62 cells; assay type: functional; details: read-out: LC50 (the source's name)
A498 = assay: Cytotoxicity against human A498 cells; assay type: functional; details: read-out: LC50 (the source's name)

Chain of MAP/microtubule affinity-regulating kinase 4 (Q96L34 whole entry): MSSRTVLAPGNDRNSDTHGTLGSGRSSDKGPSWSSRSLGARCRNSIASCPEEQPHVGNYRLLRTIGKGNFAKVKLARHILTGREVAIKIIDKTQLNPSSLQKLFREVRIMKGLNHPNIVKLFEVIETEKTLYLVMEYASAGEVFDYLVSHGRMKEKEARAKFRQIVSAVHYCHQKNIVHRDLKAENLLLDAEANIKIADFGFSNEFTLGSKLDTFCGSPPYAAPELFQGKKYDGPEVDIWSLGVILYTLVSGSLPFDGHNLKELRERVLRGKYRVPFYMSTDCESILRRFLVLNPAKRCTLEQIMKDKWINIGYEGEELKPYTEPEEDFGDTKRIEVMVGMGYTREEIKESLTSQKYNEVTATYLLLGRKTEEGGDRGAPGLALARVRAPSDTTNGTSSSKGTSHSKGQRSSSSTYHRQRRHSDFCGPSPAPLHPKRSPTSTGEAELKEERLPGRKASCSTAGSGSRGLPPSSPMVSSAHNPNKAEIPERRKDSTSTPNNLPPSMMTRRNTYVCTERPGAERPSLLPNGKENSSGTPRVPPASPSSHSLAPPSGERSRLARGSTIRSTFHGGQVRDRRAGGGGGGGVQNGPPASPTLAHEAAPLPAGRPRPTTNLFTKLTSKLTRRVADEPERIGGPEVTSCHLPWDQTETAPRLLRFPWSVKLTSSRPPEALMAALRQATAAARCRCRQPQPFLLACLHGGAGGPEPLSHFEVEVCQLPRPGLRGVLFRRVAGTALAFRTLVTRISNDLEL
Chain of Stimulator of interferon genes protein (Q86WV6 whole entry): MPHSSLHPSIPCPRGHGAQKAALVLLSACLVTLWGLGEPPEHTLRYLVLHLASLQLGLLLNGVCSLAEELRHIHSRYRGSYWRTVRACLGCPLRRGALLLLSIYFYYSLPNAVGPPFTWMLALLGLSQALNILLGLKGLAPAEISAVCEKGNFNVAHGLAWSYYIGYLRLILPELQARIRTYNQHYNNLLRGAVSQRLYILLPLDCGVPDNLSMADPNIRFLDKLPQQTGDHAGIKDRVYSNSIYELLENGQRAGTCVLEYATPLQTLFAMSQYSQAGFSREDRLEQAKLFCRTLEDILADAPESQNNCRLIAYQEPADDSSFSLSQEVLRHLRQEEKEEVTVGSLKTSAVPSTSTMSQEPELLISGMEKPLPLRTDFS

Compound: Cc1ccc(NC(=O)c2cccc3c(=O)c4ccccc4[nH]c23)cc1
- IC50 (MCF7 [1]): 6.5 µM
- IC50 [2]: 7.4 µM
- IC50 (MCF7-DOX [3]): 8.3 µM

Compound: Cc1ccc2c(c1)c(=O)c1ccccc1n2CC(=O)NCc1ccccc1
- IC50 (MCF7 [4]): 5.2 µM

Compound: COc1cc(OC)c2c(=O)c3ccccc3n(C)c2c1
- IC50 [5]: 3.38 µM

Compound: COc1cc(Cn2c3ccc(C(=O)CCN4CCCC4)cc3c(=O)c3cc(C(=O)NCCN4CCCC4)ccc32)cc(OC)c1
- IC50 (CCRF-CEM): 0.28 µM

Compound: CN(C)CCn1c(=O)c2cc(N)cc3c(=O)c4ccccc4n(c1=O)c32
- IC50 (P388): 63 µM

Compound: COc1cc2[nH]c3c(O)cccc3c(=O)c2c(O)c1CC=C(C)C
- IC50 (HepG2 [6]): 1.43 µg/mL (≈ 4.4 µM)
- IC50 [7]: 1.43 µg/mL (≈ 4.4 µM)

Compound: O=c1c2ccccc2[nH]c2ccccc12 [ACRIDONE]
- inhibition in vivo at 1 mg/kg (MCF7 [8]): 29%

Compound: O=C(NC(=O)n1c(-c2ccccc2)nc2ccc(Br)cc2c1=O)c1cccc2c(=O)c3ccccc3[nH]c12
- IC50 (MCF7 [9]): 2.9 µM
- IC50 [10]: 6 µM
- IC50 (WiDr): 9.8 µM
- IC50 (MCF7 [11]): 7.9 µM

Compound: O=C(c1ccc2c(c1)c(=O)c1ccccc1n2CCCCO[N+](=O)[O-])N1CCOCC1
- IC50 (MCF7 [12]): 0.8 µM
- IC50 [13]: 0.8 µM and > 2.7 µM
- IC50 (MCF7-DOX [14]): > 1.9 µM

Compound: COc1cccc2c(=O)c3ccccc3n(CCCCN3CCN(CCO)CC3)c12
- IC50 [15]: < 6 µM

Compound: O=C(c1cccc2c(=O)c3ccccc3[nH]c12)N1CCN(c2ccccc2)CC1
- IC50 (MCF7 [1]): 4.5 µM
- IC50 [2]: 5.1 µM
- IC50 (MCF7-DOX [3]): 6.5 µM

Compound: CC(=O)Nc1ccc2[nH]c3c(C(=O)NCCN(C)C)cccc3c(=O)c2c1
- IC50 (P388): 22 µM

Compound: Cc1ccc(NC(=O)Cn2c3ccccc3c(=O)c3cc(C)ccc32)cc1
- IC50 [16]: 1.8 µM
- IC50 (MCF7 [4]): 5.2 µM

Compound: COc1cc2c(c(O)c1OC)c(=O)c1ccccc1n2C [ARBORININE]
- IC50 (MCF7 [17]): 1.84 µM
- IC50 (A-431): 1.84 µM
- IC50 (HeLa): 1.84 µM

Compound: CCN(CC)CCNC(=O)c1ccc([N+](=O)[O-])c2[nH]c3ccccc3c(=O)c12
- IC50 (PC-3 [18]): 2 µM

Compound: N#Cc1c(F)c(Cl)c2[nH]c3ccccc3c(=O)c2c1F
- IC50 (HL-60 [19]): 0.007 µM

Compound: O=c1c2ccccc2n(CCCCN2CCN(CCO)CC2)c2ccc(Br)cc12
- IC50 [15]: 3.7 µM

Compound: CCOC(=O)c1c(C)nc(NNC(=O)c2cccc3c(=O)c4ccccc4[nH]c23)nc1-c1ccc(CC(C)C)cc1
- IC50 (MCF7 [20]): 4.32 µM
- IC50 (MDA-MB-231): 8.61 µM

Compound: Cc1cccc2c(=O)c3ccccc3n(CCCCN(CCO)CCO)c12
- IC50 (MCF7 [21]): 8.1 µM

Compound: COc1ccc(CNC(=O)Cn2c3ccccc3c(=O)c3cc(C)ccc32)cc1
- IC50 [16]: 1.8 µM
- IC50 (MCF7 [4]): 5.2 µM

Compound: CC(C)=CCc1c(O)c(CC=C(C)C)c2c(c1O)c(=O)c1ccccc1n2C
- Activity (Raji): 48%

Compound: CCOC(=O)c1c(C)nc(NNC(=O)c2cccc3c(=O)c4ccccc4[nH]c23)nc1-c1ccc(F)cc1
- IC50 (MCF7 [20]): 7.3 µM

Compound: CN(C)CCNC(=O)c1ccc([N+](=O)[O-])c2[nH]c3ccccc3c(=O)c12
- IC50 (PC-3 [18]): 1.2 µM

Compound: O=c1c2ccccc2n(CCCCN2CCN(CCO)CC2)c2c(Cl)cccc12
- IC50 (HL60/ADR): 1.07 µM
- IC50 [22]: 0.49 µM
- IC50 (HL-60 [23]): 0.45 µM

Compound: O=C(NN1CCN(c2ccccc2)CC1)c1cccc2c(=O)c3ccccc3[nH]c12
- IC50 (MCF7 [1]): 4.5 µM
- IC50 [2]: 5.1 µM
- IC50 (MCF7-DOX [3]): 6.6 µM

Compound: CCN(CC)CCCCn1c2ccccc2c(=O)c2cc(F)ccc21
- IC50 (HL-60 [24]): 0.51 µM

Compound: COc1cc2c(=O)c3cccc(CC(=O)O)c3[nH]c2c(C)c1C
- EC50 [25]: 134 µM

Compound: COc1cc(O)c2c(=O)c3cccc(O)c3n(C)c2c1OC [CITRUSININE-I]
- IC50 (MCF7 [26]): 0.22 µM
- IC50 (HepG2 [27]): 0.22 µM

Compound: COc1cc(O)c(OC)c2c1c(=O)c1cccc(O)c1n2C
- IC50 (MCF7 [26]): 0.22 µM
- IC50 (HepG2 [27]): 0.22 µM

Compound: COc1c(O)ccc2c(=O)c3c(O)cc4c(c3n(C)c12)C=CC(C)(C)O4 [CITRACRIDONE I]
- IC50 (MCF7 [28]): 12.5 µM
- IC50 (HepG2 [29]): 12.5 µM
- IC50 (PC-3 [30]): 12.5 µM
- IC50 (A549): 12.5 µM

Compound: CC(=O)Nc1cc2c(=O)c3ccccc3n3c(=O)n(CCN(C)C)c(=O)c(c1)c23
- IC50 (P388): 0.86 µM

Compound: CCOC(=O)c1c(C)nc(NNC(=O)c2cccc3c(=O)c4ccccc4[nH]c23)nc1-c1ccc(OC)cc1
- IC50 (MDA-MB-231): 6.28 µM

Compound: CCN(CC)CCCCn1c2ccccc2c(=O)c2c(OC(C)=O)cc(OC(C)=O)cc21
- IC50 (HL-60 [24]): 0.45 µM

Compound: O=c1c2ccccc2n(CCCCN2CCN(CCO)CC2)c2c(F)cccc12
- IC50 (SW1573): 5.1 µM

Compound: Cc1ccc2c(c1)c(=O)c1ccccc1n2CCCCN(CCO)CCO
- IC50 (MCF7 [21]): 6.1 µM

Compound: CCOC(=O)c1c(C)nc(NNC(=O)c2cccc3c(=O)c4ccccc4[nH]c23)nc1-c1ccccc1F
- IC50 (MDA-MB-231): 7.12 µM

Compound: COc1cc2c(cc1OCCCNC(=O)c1cccc3c(O)c4ccccc4nc13)N=C[C@@H]1CCCN1C2=O
- CC50 (NCI-H23): 0.07 µM
- CC50 (M14): < 0.01 µM
- CC50 (UACC-62): < 0.01 µM
- CC50 (A498): 0.05 µM
